Measured values from patent US20170100374A1, “POTENTIATOR-CORRECTOR COMBINATIONS USEFUL IN THE TREATMENT OF CYSTIC FIBROSIS” (AbbVie S.à.r.l., priority 2015, published 2017).

Columns and labels:
CFTR = conditions: patients with CF (Wilschanski et al., 2003); cited from earlier work
[1] = molecular target: T1, HEK293 wild type CFTR membrane fractions (Homo sapiens, UniProt P13569); test: Back-Scattering Interferometry (Molecular Sensing) binding to CFTR membrane fractions
T1 construct: expressed in transfected cells; host or cells: HEK293 (membrane fractions)
Procedure: TruBind™ Back-Scattering Interferometry (BSI) (Molecular Sensing GmbH) can be used to determine binding constants of different compounds to CFTR-expressing cells.
HEK293 wild type CFTR and HEK293 control membrane fractions are used as 100 μg (total protein amount) aliquots in 50 mM Tris-HCl pH 7.5, 1 mM EDTA, 10% Glycerol+PIC and stored at −80° C.
The buffer used for the assays is 50 mM Tris-HCl pH 7.5, 1 mM EDTA with 1.2% DMSO. The refractive index of the assay buffer and the compound are matched and then a 2x serial dilution is done in polypropylene dilution reservoirs.
A thawed aliquot of HEK293.CFTRwt as well as a thawed aliquot of HEK293 control membrane fractions is diluted to 10 mL in 50 mM Tris-HCl pH 7.5, 1 mM EDTA with 1.2% DMSO. The refractive index of the assay buffer and the two membrane fractions are matched by adding water to the membrane fractions.
Compound and target are mixed 1:1 in 96-well PCR microtiter plates to a final volume of 150 μL and heat sealed with foil. The assays are allowed to incubate at room temperature for 4 hours before being run on the BSI instrument. Wells are pierced individually prior to sample injection and measurement of BSI signal (each well is analyzed in quadruplicates). […]
The final data for the difference curve is exported to Graphpad Prism® and analyzed using a one-site binding equation to determine a Kd for the assay. […]

F508del-CFTR = molecular target: T2, F508del-CFTR (Homo sapiens, UniProt P13569, DEL508-508); conditions: patients having F508del-CFTR class II mutation (Flume et al., 2012); cited from earlier work
T2 construct: host or cells: CF patients
T2 sequence (P13569 with tags, fused parts or gaps DEL508-508): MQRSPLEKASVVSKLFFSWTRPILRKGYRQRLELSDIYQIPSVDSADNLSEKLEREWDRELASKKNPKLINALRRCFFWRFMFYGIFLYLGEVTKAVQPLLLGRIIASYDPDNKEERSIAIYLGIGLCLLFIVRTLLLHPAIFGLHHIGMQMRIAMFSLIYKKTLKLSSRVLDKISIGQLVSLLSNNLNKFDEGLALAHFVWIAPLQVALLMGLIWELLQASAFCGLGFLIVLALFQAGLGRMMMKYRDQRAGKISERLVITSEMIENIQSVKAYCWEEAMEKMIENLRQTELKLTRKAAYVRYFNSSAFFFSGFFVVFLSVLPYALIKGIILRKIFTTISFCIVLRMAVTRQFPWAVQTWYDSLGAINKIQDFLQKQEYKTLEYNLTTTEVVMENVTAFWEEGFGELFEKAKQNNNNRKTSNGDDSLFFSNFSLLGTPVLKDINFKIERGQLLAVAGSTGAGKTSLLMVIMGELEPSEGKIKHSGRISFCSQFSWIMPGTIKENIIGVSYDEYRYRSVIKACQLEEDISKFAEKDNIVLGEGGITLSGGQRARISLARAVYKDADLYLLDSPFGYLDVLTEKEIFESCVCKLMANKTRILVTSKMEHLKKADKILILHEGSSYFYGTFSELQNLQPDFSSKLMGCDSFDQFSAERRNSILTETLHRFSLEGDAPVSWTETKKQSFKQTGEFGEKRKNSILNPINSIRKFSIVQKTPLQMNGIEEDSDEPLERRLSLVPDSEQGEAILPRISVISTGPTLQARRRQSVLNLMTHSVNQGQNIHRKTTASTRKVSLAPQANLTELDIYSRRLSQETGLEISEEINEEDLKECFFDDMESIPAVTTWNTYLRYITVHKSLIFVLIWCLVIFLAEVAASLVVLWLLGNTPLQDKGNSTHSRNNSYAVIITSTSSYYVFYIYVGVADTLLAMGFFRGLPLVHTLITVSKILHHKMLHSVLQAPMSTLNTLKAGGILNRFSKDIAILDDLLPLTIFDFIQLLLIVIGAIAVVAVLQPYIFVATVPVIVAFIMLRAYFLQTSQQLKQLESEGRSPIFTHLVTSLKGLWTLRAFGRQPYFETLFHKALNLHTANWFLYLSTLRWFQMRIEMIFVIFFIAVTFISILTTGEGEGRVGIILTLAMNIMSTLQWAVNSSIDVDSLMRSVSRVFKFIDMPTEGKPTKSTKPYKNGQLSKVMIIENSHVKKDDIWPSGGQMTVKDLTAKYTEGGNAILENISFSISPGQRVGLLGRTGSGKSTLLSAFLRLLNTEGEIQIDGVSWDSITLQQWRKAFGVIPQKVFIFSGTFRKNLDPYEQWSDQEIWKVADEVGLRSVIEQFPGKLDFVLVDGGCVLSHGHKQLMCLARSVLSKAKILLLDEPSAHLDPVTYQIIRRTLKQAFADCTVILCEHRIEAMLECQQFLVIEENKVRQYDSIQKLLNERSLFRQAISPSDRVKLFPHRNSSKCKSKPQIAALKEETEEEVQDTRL

T1 sequence (P13569 whole entry): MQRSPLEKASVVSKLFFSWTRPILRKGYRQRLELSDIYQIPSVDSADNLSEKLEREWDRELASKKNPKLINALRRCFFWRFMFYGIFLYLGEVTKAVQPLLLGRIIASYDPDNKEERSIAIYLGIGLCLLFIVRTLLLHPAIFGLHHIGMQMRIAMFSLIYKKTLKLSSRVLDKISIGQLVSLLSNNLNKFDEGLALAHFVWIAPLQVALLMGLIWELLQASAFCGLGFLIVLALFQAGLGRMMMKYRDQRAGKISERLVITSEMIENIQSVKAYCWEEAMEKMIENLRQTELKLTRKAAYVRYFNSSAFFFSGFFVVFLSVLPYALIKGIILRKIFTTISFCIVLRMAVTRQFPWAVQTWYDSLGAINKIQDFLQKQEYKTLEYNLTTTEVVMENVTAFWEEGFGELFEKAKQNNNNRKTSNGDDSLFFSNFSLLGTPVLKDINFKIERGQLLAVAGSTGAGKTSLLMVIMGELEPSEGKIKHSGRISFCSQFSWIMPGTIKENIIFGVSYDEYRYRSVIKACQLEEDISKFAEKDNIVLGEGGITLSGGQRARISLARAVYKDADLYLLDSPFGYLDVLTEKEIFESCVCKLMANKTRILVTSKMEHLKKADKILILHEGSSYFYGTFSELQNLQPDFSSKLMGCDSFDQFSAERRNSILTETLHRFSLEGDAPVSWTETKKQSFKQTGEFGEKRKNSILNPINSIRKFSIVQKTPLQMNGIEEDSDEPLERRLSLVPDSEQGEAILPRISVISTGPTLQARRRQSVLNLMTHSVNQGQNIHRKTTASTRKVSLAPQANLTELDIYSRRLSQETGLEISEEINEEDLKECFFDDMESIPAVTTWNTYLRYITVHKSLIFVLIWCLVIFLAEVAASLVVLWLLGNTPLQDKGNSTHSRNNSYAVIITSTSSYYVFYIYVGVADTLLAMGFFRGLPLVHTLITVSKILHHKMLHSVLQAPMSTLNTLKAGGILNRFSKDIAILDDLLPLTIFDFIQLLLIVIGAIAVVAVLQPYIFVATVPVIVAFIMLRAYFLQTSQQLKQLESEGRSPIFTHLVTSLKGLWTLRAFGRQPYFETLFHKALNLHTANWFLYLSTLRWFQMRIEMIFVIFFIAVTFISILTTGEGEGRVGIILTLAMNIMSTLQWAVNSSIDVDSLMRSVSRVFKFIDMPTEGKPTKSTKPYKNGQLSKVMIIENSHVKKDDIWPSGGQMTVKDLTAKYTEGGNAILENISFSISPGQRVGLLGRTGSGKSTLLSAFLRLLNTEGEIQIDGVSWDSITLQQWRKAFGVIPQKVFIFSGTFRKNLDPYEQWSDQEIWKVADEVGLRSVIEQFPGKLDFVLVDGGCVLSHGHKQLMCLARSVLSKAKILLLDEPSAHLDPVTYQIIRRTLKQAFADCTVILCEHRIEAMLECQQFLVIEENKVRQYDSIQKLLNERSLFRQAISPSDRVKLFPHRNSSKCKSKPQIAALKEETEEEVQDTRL

gentamicin
change in Nasal Potential Difference (NPD) values (CFTR): small changes

COc1ccc2c(c1)O[C@@H](c1ccc(C(=O)O)cc1)C[C@H]2NC(=O)C1(c2ccc3c(c2)OC(F)(F)O3)CC1 [C1]
Kd ([1]; binding to wild-type CFTR membrane fractions, control membrane fractions subtracted, one-site binding fit): 94.7 ± 26.5 nM
binding affinity to the membrane fraction of CFTR (in words) ([1]; comment on Table 1): binding affinity similar to the known correctors acting on CFTR

CC(C)(C)c1cc(C(C)(C)C)c(NC(=O)c2c[nH]c3ccccc3c2=O)cc1O [VX-770]
therapeutic efficacy in patients (F508del-CFTR): no significant therapeutic efficacy
